Measurements taken from patent publication US10738015B2, “1,3-diaza-spiro-[3.4]-octane derivatives” (priority 2017, dated 2020).
Read-outs that look alike come from different tables or passages of the source.

Key:
[1] = target: human mu-opioid peptide (hMOP) receptor (Homo sapiens (Human), UniProt P35372); experiment: hMOP receptor binding assay (SPA)
Procedure: Human Mu-Opioidpeptide (hMOP) Receptor Binding Assay
The hMOP receptor binding assay was performed as homogeneous SPA-assay (scintillation proximity assay) using the assay buffer 50 mM TRIS-HCl (pH 7.4) supplemented with 0.052 mg/ml bovine serum albumin (Sigma-Aldrich Co. St. Louis, Mo.). […] The assay was started by adding wheat germ agglutinin coated SPA beads (GE Healthcare UK Ltd. Buckinghamshire. UK) which had been preloaded with hMOP receptor membranes (PerkinElmer Life Sciences. Inc. Boston, Mass. USA).

[2] = target: human nociceptin/orphanin FQ peptide (hNOP) receptor (Homo sapiens (Human), UniProt P41146); experiment: hNOP receptor binding assay (SPA)
Procedure: Human Nociceptin/Orphanin FQ Peptide (hNOP) Receptor Binding Assay
The hNOP receptor binding assay was performed as homogeneous SPA-assay (scintillation proximity assay) using the assay buffer 50 mM TRIS-HCl, 10 mM MgCl2, 1 mM EDTA (pH 7.4). The final assay volume (250 μl/well) included 0.5 nM of [leucyl-^3H]nociceptin as ligand (PerkinElmer Life Sciences. Inc. Boston, Mass. USA) and either test compound in dilution series or 1 μM unlabelled nociceptin for determination of unspecific binding. The test compound was diluted with 25% DMSO in H2O to yield a final 0.5% DMSO concentration which also served as a respective vehicle control. The assay was started by adding wheat germ agglutinin coated SPA beads (GE Healthcare UK Ltd. Buckinghamshire. UK) which had been preloaded with hNOP receptor membranes (PerkinElmer Life Sciences. Inc. Boston, Mass. USA). After incubation for 60 minutes at RT and centrifugation for 20 minutes at 500 rpm the signal rate was measured by means of a 1450 Microbeta Trilux ß-counter (PerkinElmer Life Sciences/Wallac. Turku. Finland). Half-maximal inhibitory concentration (IC50) values reflecting 50% displacement of [^3H]nociceptin-specific receptor binding were calculated by nonlinear regression analysis and Ki values were calculated by using the Cheng-Prusoff equation. (Cheng and Prusoff. 1973).

[3] = Ki, displacement of [3H]naloxone, hMOP receptor membranes, read-out: hMOP Ki [nM] or % inhibition at 1 μM
[4] = Ki, displacement of [leucyl-3H]nociceptin, hNOP receptor membranes, read-out: hNOP Ki [nM] or % inhibition at 1 μM

human mu-opioid peptide (hMOP) receptor, sequence (P35372 whole entry): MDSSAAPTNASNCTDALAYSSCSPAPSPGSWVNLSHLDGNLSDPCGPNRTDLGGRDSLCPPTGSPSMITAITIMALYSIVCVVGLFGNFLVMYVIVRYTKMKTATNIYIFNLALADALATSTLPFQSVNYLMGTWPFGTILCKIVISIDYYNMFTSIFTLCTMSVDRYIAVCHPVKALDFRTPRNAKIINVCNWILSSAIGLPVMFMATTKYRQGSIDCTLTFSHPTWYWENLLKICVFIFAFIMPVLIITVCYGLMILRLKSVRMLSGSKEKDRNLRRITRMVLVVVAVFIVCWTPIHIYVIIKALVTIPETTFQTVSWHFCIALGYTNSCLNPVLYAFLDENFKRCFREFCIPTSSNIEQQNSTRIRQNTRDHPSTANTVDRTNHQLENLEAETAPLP

Compound	Ki [1, 3] [nM]	Ki [2] [nM]	Ki [2, 4] [nM]	Ki [1] [nM]
CN(C)[C@]1(c2cccc(F)c2)C[C@@]2(CN(CCS(C)(=O)=O)C(=O)N2CC2CC2)C1 [SC-31, cis-5-(cyclopropylmethyl)-2-(dimethylamino)-2-(3-fluorophenyl)-7-(2-(methylsulfonyl)ethyl)-5,7-diazaspiro[3.4]octan-6-one]	150	15		
CN(C)[C@]1(c2ccccc2)C[C@@]2(CN(c3ccc(OC(F)(F)F)cn3)C(=O)N2CC2CC2)C1 [SC-32, Cis-5-(cyclopropylmethyl)-2-(dimethylamino)-2-phenyl-7-(5-(trifluoromethoxy)pyridin-2-yl)-5,7-diazaspiro[3.4]octan-6-one]	100		36	
CN(C)[C@]1(c2cccc(F)c2)C[C@@]2(CN(CC3(F)COC3)C(=O)N2CC2CC2)C1 [SC-33, Cis-5-(cyclopropylmethyl)-2-(dimethylamino)-7-((3-fluorooxetan-3-yl)methyl)-2-(3-fluorophenyl)-5,7-diazaspiro[3.4]octan-6-one]	115		23	
CN(C)[C@]1(c2ccccc2)C[C@@]2(CN(c3ccc(C4CC4)nc3)C(=O)N2CC2CC2)C1 [SC-34, Cis-5-(cyclopropylmethyl)-7-(6-cyclopropylpyridin-3-yl)-2-(dimethylamino)-2-phenyl-5,7-diazaspiro[3.4]octan-6-one]	50		17	
Cc1cc(C2CC2)ncc1N1C[C@]2(C[C@](c3ccccc3)(N(C)C)C2)N(CC2CC2)C1=O [SC-35, Cis-7-(6-cyclopropyl-4-methylpyridin-3-yl)-5-(cyclopropylmethyl)-2-(dimethylamino)-2-phenyl-5,7-diazaspiro[3.4]octan-6-one]	185		19	
Cc1cc(C2CC2)ncc1N1C[C@]2(C[C@](c3ccccc3)(N(C)C)C2)N(CC2(F)COC2)C1=O [SC-36, Cis-7-(6-cyclopropyl-4-methylpyridin-3-yl)-2-(dimethylamino)-5-((3-fluorooxetan-3-yl)methyl)-2-phenyl-5,7-diazaspiro[3.4]octan-6-one]	330		10	
COC(C)(C)CN1C[C@]2(C[C@](c3cccc(F)c3)(N(C)C)C2)N(CC2CC2)C1=O [SC-37, Cis-5-(cyclopropylmethyl)-2-(dimethylamino)-2-(3-fluorophenyl)-7-(2-methoxy-2-methylpropyl)-5,7-diazaspiro[3.4]octan-6-one]			37	44
CN(C)[C@]1(c2ccccc2)C[C@@]2(CN(c3cncc(C(F)(F)F)c3)C(=O)N2CC2CC2)C1 [SC-39, Cis-5-(cyclopropylmethyl)-2-(dimethylamino)-2-phenyl-7-[5-(trifluoromethyl)pyridin-3-yl]-5,7-diazaspiro[3.4]octan-6-one]	48		5	
CN(C)[C@]1(c2ccccc2)C[C@@]2(CN(c3cnc(C#N)c(C(F)(F)F)c3)C(=O)N2CC2CC2)C1 [SC-40, Cis-5-[5-(cyclopropylmethyl)-2-(dimethylamino)-6-oxo-2-phenyl-5,7-diazaspiro[3.4]octan-7-yl]-3-(trifluoromethyl)pyridine-2-carbonitrile]	102		6	
CN(C)[C@]1(c2cccc(F)c2)C[C@@]2(CN(Cc3ccc(N4CCOCC4)cc3)C(=O)N2)C1 [SC-41, cis-2-(dimethylamino)-2-(3-fluorophenyl)-7-(4-morpholinobenzyl)-5,7-diazaspiro[3.4]octan-6-one]	465	21		
CN(C)[C@]1(c2cccc(F)c2)C[C@@]2(CN(CC3(O)CCC3)C(=O)N2CC2CC2)C1 [SC-42, Cis-5-(cyclopropylmethyl)-2-(dimethylamino)-2-(3-fluorophenyl)-7-[(1-hydroxycyclobutyl)methyl]-5,7-diazaspiro[3.4]octan-6-one]	125		21	
CN(C)[C@]1(c2ccccc2)C[C@@]2(CN(c3cnc(-c4ccncc4)nc3)C(=O)N2CC2CC2)C1 [SC-43, Cis-5-(cyclopropylmethyl)-2-(dimethylamino)-2-phenyl-7-(2-pyridin-4-ylpyrimidin-5-yl)-5,7-diazaspiro[3.4]octan-6-one]	83		31	
CN(C)[C@]1(c2cccc(F)c2)C[C@@]2(CN(CCC#N)C(=O)N2CC2CC2)C1 [SC-44, cis-3-(5-(cyclopropylmethyl)-2-(dimethylamino)-2-(3-fluorophenyl)-6-oxo-5,7-diazaspiro[3.4]octan-7-yl)propanenitrile]			15	110
CN(C)[C@]1(c2ccccc2)C[C@@]2(CN(CCC#N)C(=O)N2CC2CC2)C1 [SC-45, Cis-3-[5-(cyclopropylmethyl)-2-(dimethylamino)-6-oxo-2-phenyl-5,7-diazaspiro[3.4]octan-7-yl]propanenitrile]	37		25	
CN(C)[C@]1(c2ccccc2)C[C@@]2(CN(CC3(O)CCC3)C(=O)N2CC2CC2)C1 [SC-46, Cis-5-(cyclopropylmethyl)-2-(dimethylamino)-7-[(1-hydroxycyclobutyl)methyl]-2-phenyl-5,7-diazaspiro[3.4]octan-6-one]	48		29	
CN(C)[C@]1(c2cccc(F)c2)C[C@@]2(CN(CCC3COC3)C(=O)N2CC2CC2)C1 [SC-47, Cis-5-(cyclopropylmethyl)-2-(dimethylamino)-2-(3-fluorophenyl)-7-[2-(oxetan-3-yl)ethyl]-5,7-diazaspiro[3.4]octan-6-one]	44		9	
